Assay: Bulk density (uncompressed, untapped powder)
Assay type: physicochemical
Details: Compound 1 as synthesized, cotton like fluffy agglomerates
Method: As used herein, the term “bulk density” refers to the uncompressed, untapped powder bulk density, as measured by pouring an excess of powder sample through a funnel into a smooth metal vessel (e.g., a 500 mL volume cylinder), scraping off the excess from the heap above the rim of the vessel, measuring the remaining mass of powder and dividing the mass by the volume of the vessel.
Three 500 g batches of Compound 1 powder blends (see Table 3) were prepared according to the following method. A KG-5 High Shear Granulator with an 8-inch impeller diameter was used to preblend all ingredients (except magnesium stearate) at low (155 rpm), medium (405 rpm), or high (600 rpm) impeller speeds with the chopper speed of 1200 rpm for 2 minutes. Water was added at a rate of 30 to 31.5 g/min to the powder mix. After the full amount of water was added, the mixture was blended for an additional 2 minutes. The wet granules were dried with the MiniGlatt Fluid Bed Dryer at 60° C. to targeted LODs and the granule texture, size, shape, stickiness, etc visually inspected. Drying at various temperatures and times are evaluated also. […] The final blends were checked for degradation by HPLC, and physical properties determined such as, Bulk Density, Tapped Density, Carr's Index, Hausner Ratio and Flow Index by Flodex. […]

bulk density: 0.15 to 0.30 g/mL
Compound: COc1cc(Nc2ncc(F)c(Nc3ccc4c(n3)N(COP(=O)([O-])[O-])C(=O)C(C)(C)O4)n2)cc(OC)c1OC.[Na+].[Na+] [Compound 1, (6-(5-fluoro-2-(3,4,5-trimethoxyphenylamino)pyrimidin-4-ylamino)-2,2-dimethyl-3-oxo-2H-pyrido[3,2-b][1,4]oxazin-4(3H)-yl)methyl phosphate disodium salt]

Source: patent publication US8652492B2, “Wet granulation using a water sequestering agent” (Rigel Pharmaceuticals, Inc., priority 2007, dated 2014)
